Data published in paper PMC5517430, “2,3,7,8-Tetrachlorodibenzo-p-dioxin (TCDD)-elicited effects on bile acid homeostasis: Alterations in biosynthesis, enterohepatic circulation, and microbial metabolism” (Scientific Reports, 2017).
“And” between values parts separate entries of the source, which are not always exact repeats. Equal entries are not always repeated.

Legend:
Assay type in all cases: in vivo, mouse
[1] = test system: bile acids; assay: HRAM-LC-MS analysis of bile acids in liver, serum and feces; details: male mice
Protocol: Serum (10 µL) was added to 10 µL of a 20 ng/µL stock solution of deuterated (d4) glycochenodeoxycholic acid (GCDCA, from Steraloids, Inc.) in methanol, and extracted with ice-cold methanol as previously described. Frozen liver samples (50 mg) or dried fecal pellets (50 mg) were combined with 10 µL of 20 ng/µL d4-GCDCA stock solution and 1.0 mL of ice-cold methanol, and homogenized with 0.5 mm zirconium oxide beads using an air-cooled Bullet Blender (NextAdvance). Extracts were dried under vacuum, reconstituted in 2.0 mL of 50% methanol, filtered through 0.2 µm nylon membranes (Pall Life Sciences), and stored at −80 °C.
Bile acids were analyzed by high resolution/accurate mass (HRAM)-LC-MS using an Agilent 1260 capillary HPLC coupled to a Thermo Scientific LTQ-Orbitrap Velos mass spectrometer. Extracts (2 µL) were injected into water containing 0.1% formic acid, and loaded onto an inline peptide Opti-Trap (Optimize Technologies) for 3.0 min at 5 µL/min for desalting and concentration. Bile acids were then eluted by a 30 min water/acetonitrile gradient from 98% water containing 0.1% formic acid to 95% acetonitrile containing 0.1% formic acid (modified from ref. [73]) and separated by a ProntoSil C18AQ 200 µm × 50 mm, 3 u column (nanoLCMS Solutions) at a flow rate of 2 µL/min. The column eluent was introduced to the LTQ-Orbitrap Velos mass spectrometer by an Advance nano-ESI source (Michrom BioResources) at a spray voltage of −1.7 kV. High resolution (R = 100,000 at 400 m/z) negative ion mass spectra were collected over 300–900 m/z. The ion transfer tube of the mass spectrometer was maintained at 250 °C, and the S-lens was set to 50%. Appropriate sample dilution factors were determined empirically to ensure a linear range of detector response. Chromatographic peak alignment, feature detection, quantitation and bile acid identification were performed using MAVEN[75] and SECD-LIMSA[76] software. All bile acids were identified by comparison of retention time and accurate mass data against reference standards. Relative quantitation was performed against the deuterated GCDCA internal standard. TCDD-elicited changes in bile acid species are reported as fold changes relative to vehicle controls.

[2] = test system: Slc6a6; assay: Hepatic RNA-Seq differential gene expression (fold change, P1(t), ED50, BMD, BMDL); details: C57BL/6, mouse, liver, oral; male mice, TCDD every 4 d for 28 d
Protocol: (§1) Frozen ileal epithelium scrapings and liver samples were homogenized in TRIzol (Ambion, Waltham, MA) using a Mixer Mill 300 tissue homogenizer (Retsch, Germany) and total RNA was isolated as previously described. RNA was quantified using a Nano-drop spectrophotometer (Thermo Scientific, Wilmington, DE) at 260 nm, and purity was assessed using the A260/A280 ratio and the Caliper LabChip GX (Perkin Elmer, Waltham, MA).
(§2) Dose-dependent gene expression was examined using RNA-Seq performed at the MSU Research Technology Support Facility (RTSF) Genomics Core (rtsf.natsci.msu.edu/genomics). Ileal libraries from three independent biological replicates (n = 3) were prepared using the Ovation Mouse RNA-Seq System 1–16 sample preparation kit (NuGen, San Carlos, CA), with an additional DNase step. Libraries were quantified and sequenced as previously described, using a read depth of ~30 M per sample[33], [67]. Quality was determined using FASTQC v0.11.3 and adaptor sequences were removed using Trimmomatic v0.33. Reads were mapped to the mouse reference genome (GRCm38 release 81) using Bowtie2 v2.2.6 and TopHat2 v2.1.0. Alignments were converted to SAM format using SAMTools v1.2.0. For TCDD-mediated differential gene expression, fold changes were calculated relative to vehicle controls. Hepatic RNA-Seq analysis was previously published. Genes were considered differentially expressed if |fold change| ≥ 1.5 and statistical P1(t) value ≥ 0.8 at one or more doses. RNA-Seq datasets for the ileal epithelium and liver were deposited in the Gene Expression Omnibus (GEO; accession number GSE89430 and GSE87519, respectively). The RNA-Seq results (fold changes, P1(t) values) for each gene discussed in the manuscript have been compiled in Supplementary Table S1. […] Estimation of benchmark dose (BMD) and BMD lower confidence limit (BMDL) was performed using BMDExpress[69] as previously described, and has been included in Supplementary Table S1.

[3] = test system: Cyp39a1; assay: as above; details: C57BL/6, mouse, liver, oral; male mice, TCDD every 4 d for 28 d
Protocol: as §1, §2

[4] = test system: Abcc4; assay: as above; details: C57BL/6, mouse, liver, oral; male mice, 30 µg/kg TCDD every 4 d for 28 d
Protocol: as §1, §2

[5] = liver, 10 µg/kg TCDD every 4 d for 28 d, relative to vehicle
[6] = liver, 30 µg/kg TCDD every 4 d for 28 d, relative to vehicle
[7] = liver, dose not stated, 3–30 µg/kg TCDD
[8] = liver, dose-dependent, 3–30 µg/kg TCDD
[9] = serum, 30 µg/kg TCDD every 4 d for 28 d, relative to vehicle

Clc1cc2c(cc1Cl)Oc1cc(Cl)c(Cl)cc1O2 [TCDD, 2,3,7,8-tetrachlorodibenzo-p-dioxin]
Deoxycholic acid disulfate DCA-di-SO4, Fold Change FECES ([1]; feces, 30 µg/kg TCDD, relative to vehicle, n = 2 cages): 4.9 fold | Taurolithocholic acid TLCA, Fold Change FECES ([1]; feces, 30 µg/kg TCDD, relative to vehicle, n = 2 cages, ∞ = detected in treated animals but not controls): undetectable in controls to detectable in treated mice | Fecal cholic acid 7-sulfate (CA-7-SO4), fold decrease ([1]; feces, 30 µg/kg TCDD): 55.2 fold | Fecal taurocholic acid 3-sulfate (TCA-3-SO4), fold decrease ([1]; feces, 30 µg/kg TCDD): 10.3 fold | Fecal α-MCA, fold decrease ([1]; feces, 30 µg/kg TCDD): 10.3 fold | Total fecal bile acids, fold decrease ([1]; feces, 30 µg/kg TCDD): 2.8 fold | Taurolithocholic acid TLCA, Fold Change LIVER [1, 5]: 72.1 fold | Total Bile Acids, Fold Change LIVER [1, 5]: 2.1 fold | Cholic acid CA, Fold Change LIVER [1, 6]: 4.7 fold | Taurolithocholic acid TLCA, Fold Change LIVER [1, 6]: > 200 fold and 233.8 fold | Total Bile Acids, Fold Change LIVER [1, 6]: 4.6 fold | Effect on hepatic CDCA ([1]; liver, 3–30 µg/kg TCDD): no effect | Effect on hepatic α/β-MCA ([1]; liver, 3–30 µg/kg TCDD): no effect | Hepatic glycocholic acid (GCA), fold increase [1, 7]: 3.9 fold | Hepatic tauro-α-muricholic acid (T-α-MCA), fold increase [1, 7]: 3.7 fold | Hepatic taurocholic acid (TCA), fold increase [1, 7]: 9.7 fold | Total hepatic conjugated primary bile acid levels, max fold increase [1, 8]: 4.7 fold | Total hepatic levels of conjugated secondary bile acids, max fold increase [1, 8]: 77.7 fold | Cholic acid CA, Fold Change SERUM [1, 9]: 58.2 fold | Deoxycholic acid DCA, Fold Change SERUM [1, 9]: 79.7 fold | Glycocholic acid GCA, Fold Change SERUM [1, 9]: 134.4 fold | Muricholic acid (α) α-MCA, Fold Change SERUM [1, 9]: 97.0 fold | Muricholic acid (β) β-MCA, Fold Change SERUM [1, 9]: 52.8 fold | Taurocholic acid TCA, Fold Change SERUM [1, 9]: 298.9 fold | Total Bile Acids, Fold Change SERUM [1, 9]: 45.4 fold | fold induction at 28 d [2]: 1.8 | fold induction at 28 d [3]: 2.1 | fold induction at 28 d [4]: 58.1
